The first data set deals with HMG-CoA reductase. The data set is described as follows: HMG-CoA reductase inhibition assay (in vitro protocol of J. Med. Chem., 28, 347-358). The following applies: relative to compactin arbitrarily assigned a value of 100; IC50 compared with that of compactin determined simultaneously; tested as sodium salt of dihydroxy acid form; enzyme solubilized from rat liver microsomes. Format: biochemical. The protocol:
The intrinsic HMG-CoA reductase inhibition activity of the claimed compounds is measured in the in vitro protocol published in J. Med. Chem., 28, p. 347-358 (1985) and described below: Male Holtzman Sprague-Dawley rats (225-250 g) were kept on reversed lighting and fed Purina rat chow containing 3% cholestyramine for 7 days preceding their sacrifice by CO2 asphyxiation. Livers were removed 6 hours into the dark cycle and used immediately to prepare microsomes. HMG-CoA reductase was solubilized from the freshly prepared microsomes by the method of Heller and Shrewsbury [J. Biol. Chem., 1976, 251, 3815] and purified through the second ammonium sulfate precipitation step as described by Kleinsek et al. [Proc. Natl. Acad. Sci. USA, 1977, 74, 1431]. […] The enzyme preparation was stored at -80° C. The assay is essentially the procedure of Shefer et al. [J. Lipid Res., 1972, 13, 402]. The complete assay medium contained the following in a total volume of 0.8 ml: phosphate buffer, pH 7.2, 100 mM; MgCl2, 3 mM; NADP, 3 mM; glucose-6-phosphate, 10 mM; glucose-6-phosphate dehydro-genase, 3 enzyme units; reduced glutathione, 50 mM; HMG-CoA (qlutaryl-3-^14 C, New England Nuclear), 0.2 mM (0.1 μCi); and partially purified enzyme stock solution, 100 μL. […] After a 40-minute incubation at 37° C. with shaking and exposure to air, the reaction was stopped by the addition of 0.4 mL of 8N HCl. After an additional 30-minute incubation period at 37° C. to ensure the complete lactonization of mevalonic acid to mevalonolactone, 0.2 ml of the mixture was added to an 0.5×5.0 cm column containing 100-200 mesh Bio-Rex 5, chloride form (Bio-Rad), wetted with distilled water, as described by Alberts et al. [Proc. Natl. Acad. Sci. U.S.A., 1980, 77, 3967]. The unreacted [^14 C]HMG-CoA was absorbed on the resin and the [^14 C]mevalonolactone was eluted with distilled water (2×1 ml) directly into 7-ml scintillation vials. Five milliliters of Aquasol-2 (New England Nuclear) was added to each vial, and radioactivity was measured in a Packard Tri Carb Prias scintillation counter. IC50 values were determined by plotting percentage inhibition against test compound concentration and fitting a straight line to the resulting data by using the least-squares method.
(Microsomes from liver hold many membrane-bound enzymes, among them those of drug oxidation.)
Chain of HMG-CoA reductase (P51639 425-887 limits assumed): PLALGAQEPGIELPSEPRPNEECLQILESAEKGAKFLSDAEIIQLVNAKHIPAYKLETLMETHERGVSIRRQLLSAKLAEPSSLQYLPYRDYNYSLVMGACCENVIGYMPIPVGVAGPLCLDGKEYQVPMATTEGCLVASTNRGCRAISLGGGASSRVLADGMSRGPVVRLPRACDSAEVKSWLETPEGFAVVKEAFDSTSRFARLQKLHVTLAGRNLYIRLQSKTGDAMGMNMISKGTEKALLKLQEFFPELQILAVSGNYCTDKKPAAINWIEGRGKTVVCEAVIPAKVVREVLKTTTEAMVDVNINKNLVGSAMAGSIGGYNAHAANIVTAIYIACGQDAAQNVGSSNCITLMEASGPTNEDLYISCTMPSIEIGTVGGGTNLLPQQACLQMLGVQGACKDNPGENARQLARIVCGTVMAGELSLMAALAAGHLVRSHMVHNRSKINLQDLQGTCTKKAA
For “6(R)-[2-[8(S)-(2,2-Dimethylbutyryloxy)-6(S)-carboxy-2(S)-methyl-1,2,6,7,8,8a(R)-hexahydronaphthyl-1(S)]ethyl]-4(R)-hydroxy-3,4,5,6-tetrahydro-2H-pyran-2-one [db -- db S CO2 H 1,1-dimethylpropyl]”, the “Relative Potency” value is on record as 99.

With “6(R)-[2-[8(S)-(2,2-Dimethylbutyryloxy)-6(S)-(N,N-dimethyl)aminocarbonyl-2(S)methyl-1,2,6,7,8,8a(R)-hexahydronaphthyl-1(S)]ethyl]-4(R)-hydroxy-3,4,5,6-tetrahydro-2H-pyran-2-one [db -- db S CONMe2 1,1-dimethylpropyl]”, the “Relative Potency” value was found to be 82.

Consider “6(R)-[2-[8(S)-(2,2-Dimethylbutyryloxy)-2(S)-methyl-6(S)-carboxy-1,2,3,4,4a(S),5,6,7,8,8a(S)-decahydronaphthyl-1(S)]-ethyl]-4(R)-hydroxy-3,4,5,6-tetrahydro-2H-pyran-2-one [-- -- -- S CO2 H 1,1-dimethylpropyl]”, for which the “Relative Potency” value is given as 79.

For “6(R)-[2-[8(S)-(2,2-dimethylbutyryloxy)-2(S)-methyl-6(S)-hydroxymethyl-1,2,3,4,4a(S),5,6,7,8,8a(S)-decahydronaphthyl-1(S)]ethyl]-4(R)-hydroxy-3,4,5,6- tetrahydro-2H-pyran-2-one [-- -- -- S CH2 OH 1,1-dimethylpropyl]”, the “Relative Potency” value is 86.

As to “6(R)-[2-[8(S)-(2,2-dimethylbutyryloxy)-2(S)-methyl-6(S)-(2,2-dimethylbutyryloxymethyl)-1,2,3,4,4a(S),5,6,7,8,8a(S)-decahydronaphthyl-1(S)]ethyl]-4(R)-hydroxy-3,4,5,6-tetrahydro-2H-pyran-2-one”, the “Relative Potency” value is 100.

As for “6(R)-[2-[8(S)-(2,2-Dimethylbutyryloxy)-2(S)-methyl-6(S)-ethoxycarbonyl-1,2,3,4,4a(S),5,6,7,8,8a(S)-decahydronaphthyl-1(S)]ethyl]-4(R)-hydroxy-3,4,5,6-tetrahydro-2H-pyran-2-one [-- -- -- S CO2 Et 1,1-dimethylpropyl]”, the “Relative Potency” value came to 125.

For the molecule “6(R)-[2-[8(S)-(2,2-dimethylbutyryloxy)-2(S)-methyl-6(S)-(1-hydroxyethyl)-1,2,3,4,4a,(S),5,6,7,8,8a(R)-decahydronaphthyl-1(S)]ethyl]-4(R)-hydroxy-3,4,5,6-tetrahydro-2H-pyran-2-one [-- -- -- S CHOHCH3 (ISOMER B) 1,1-dimethylpropyl]”, the “Relative Potency” value is on record as 113.

As to “6(R)-[2-[8(S)-(2,2-Dimethylbutyryloxy)-2(S)-methyl-6(S)-isopropoxycarbonyl-1,2,3,4,4a(S),5,6,7,8,8a(S)-decahydronaphthyl-1(S)]ethyl]-4(R)-hydroxy-3,4,5,6-tetrahydro-2H-pyran-2-one [-- -- -- S CO2-i-Pr 1,1-dimethylpropyl]”, the “Relative Potency” value was 80.

As to “6(R)-[2-[8(S)-(Cyclohexylcarbonyloxy)-6(S)-hydroxymethyl-2(S)-methyl-1,2,3,4,4a(S),5,6,7,8,8a(S)-decahydronaphthyl-1(S)]ethyl]-4(R)-hydroxy-3,4,5,6-tetrahydro-2H-pyran-2-one [-- -- -- S CH2 OH cyclohexyl]”, the “Relative Potency” value is on record as 33.

With “6(R)-[2-[8(S)-(2,2-dimethylbutyryloxy)-2(S)-methyl-6(R)-(1-hydroxyethyl)-1,2,3,4,4a(S),5,6,7,8,8a(S)-decahydronaphthyl-1(S)]ethyl]-4(R)-hydroxy-3,4,5,6-tetrahydro-2H-pyran-2-one [-- -- -- R CHOHCH3 (ISOMER B) 1,1-dimethylpropyl]”, the “Relative Potency” value came to 104.

Regarding “6(R)-[2-[8(S)-(2,2-Dimethylbutyryloxy)-2(S)-methyl-6(S)-(α-hydroxybenzyl)-1,2,3,4,4a(S),5,6,7,8,8a-(S)-decahydronaphthyl-1(S)]ethyl]-4(R)-hydroxy-3,4,5,6-tetrahydro-2H-pyran-2-one [-- -- -- S CHOHPH 1,1-dimethylpropyl]”, the “Relative Potency” value was found to be 220.

On to “6(R)-[2-[8(S)-(2,2-Dimethylbutyryloxy)-6(R)-carboxy-2(S)-methyl-1,2,6,7,8,8a(R)-hexahydronaphthyl-1(S)]ethyl]-4(R)-hydroxy-3,4,5,6-tetrahydro-2H-pyran-2-one [db -- db R CO2 H 1,1-dimethylpropyl]”, for which the “Relative Potency” value came to 94.

For “6(R)-[2-[8(S)-(2,2-dimethylbutyryloxy)-6(S)-(N,N-diethyl)aminocarbonyl-2(S)-methyl-1,2,6,7,8,8a(R)-hexahydronaphthyl-1(S)]ethyl]-4(R)-hydroxy-3,4,5,6-tetrahydro-2H-pyran-2-one [db -- db S CONEt2 1,1-dimethylpropyl]”, the “Relative Potency” value amounted to 65.

For “6(R)-[2-[8(S)-(2,2-Dimethylbutyryloxy)-6(S)-hydroxymethyl-2(S)-methyl-1,2,6,7,8,8a(R)-hexahydronaphthyl-1(S)]ethyl]-4(R)-hydroxy-3,4,5,6-tetrahydro-2H-pyran-2-one [db -- db S CH2 OH 1,1-dimethylpropyl]”, the “Relative Potency” value was 189.

For the molecule “6(R)-[2-[8(S)-(2-methylbutyryloxy)-2(S)-methyl-6(R)-(hydroxymethyl)-1,2,6,7,8,8a(R)-hexahydronaphthyl-1(S)]ethyl]-4(R)-hydroxy-3,4,5,6-tetrahydro-2H- pyran-2-one [db -- db R CH2 OH sec-butyl]”, the “Relative Potency” value came out at 47.

Consider “6(R)-[2-[8(S)-(2,2-Dimethylbutyryloxy)-2(S)-methyl-6(S)-(N,N-dimethyl)aminocarbonyl-1,2,3,4,4a(S),5,6,7,8,8a(S)-decahydronaphthyl-1(S)]-ethyl]-4(R)-hydroxy-3,4,5,6-tetrahydro-2H-pyran-2-one [-- -- -- S CONMe2 1,1-dimethylpropyl]”, for which the “Relative Potency” value is listed as 75.

With “6(R)-[2-[8(S)-(2,2-dimethylbutyryloxy)-2(S)-methyl-6(R)-(1-hydroxyethyl)-1,2,3,4,4a(S),5,6,7,8,8a(S)-decahydronaphthyl-1(S)]ethyl]-4(R)-hydroxy-3,4,5,6-tetrahydro-2H-pyran-2-one [-- -- -- R CHOHCH3 (ISOMER A) 1,1-dimethylpropyl]”, the “Relative Potency” value was 111.

As for “6(R)-[2-[8(S)-(2,2-Dimethylbutyryloxy)-6(R)-(2,2-dimethylbutyryloxymethyl)-2(S)-methyl-1,2,3,4,6,7,8,8a(R)-octahydronaphthyl-1(S)]-ethyl]-4(R)-hydroxy-3,4,5,6-tetrahydro-2H-pyran-2-one”, the “Relative Potency” value turned out to be 33.

On to “6(R)-[2-[8(S)-(2,2-dimethylbutyryloxy)-2(S)-methyl-6(S)-(1-hydroxyethyl)-1,2,3,4,4a,(S),5,6,7,8,8a(R)-decahydronaphthyl-1(S)]ethyl]-4(R)-hydroxy-3,4,5,6-tetrahydro-2H-pyran-2-one [-- -- -- S CHOHCH3 (ISOMER A) 1,1-dimethylpropyl]”, for which the “Relative Potency” value was 131.

Consider “6(R)-[2-[8(S)-(2-methylbutyryloxy)-6(S)-carboxy-2(S)-methyl-1,2,6,7,8,8a(R)-hexahydronaphthyl-1(S)]ethyl]-4(R)-hydroxy-3,4,5,6-tetrahydro-2H-pyran-2- one [db -- db S CO2 H sec-butyl]”, for which the “Relative Potency” value turned out to be 26.

In the case of “6(R)-[2-[8(S)-(2,2-Dimethylbutyryloxy)-6(R)-hydroxymethyl-2(S)methyl-1,2,3,4,6,7,8,8a(R)-octahydronaphthyl-1(S)]ethyl]-4(R)-hydroxy-3,4,5,6-tetrahydro-2H-pyran-2-one [db -- -- R CH2 OH 1,1-dimethylpropyl]”, the “Relative Potency” value is 213.

For “6(R)-[2-[8(S)-(2,2-Dimethylbutyryloxy)-2(S)-methyl-6(S)-aminocarbonyl-1,2,3,4,4a(S),5,6,7,8,8a(S)-decahydronaphthyl-1(S)]ethyl]-4(R)-hydroxy-3,4,5,6- tetrahydro-2H-pyran-2-one [-- -- -- S CONH2 1,1-dimethylpropyl]”, the “Relative Potency” value is 107.

Tested on in the next data set: not listed separately
The data set is described as follows: Stability of the free dihydroxy acid on standing. The following applies: dihydroxy acid can be maintained by increasing the pH above 7.0. Format: physicochemical. As for the experimental part:
The sodium salt of the compound II from Example 64 is dissolved in 2 ml of ethanol-water (1:1; v:v) and added to 10 ml of 1N hydrochloric acid from which the dihydroxy acid is extracted with ethyl acetate. The organic extract is washed once with water, dried (Na2 SO4), and evaporated in vacuo with a bath temperature not exceeding 30° C. […] The dihydroxy acid can be maintained by increasing the pH above 7.0.
On to `CCC(C)(C)C(=O)O[C@H]1C[C@@H](CO)C[C@@H]2CC[C@H](C)[C@H](CC[C@@H](O)C[C@@H](O)CC(=O)O)[C@H]21` [Example 70], for which the “reversion of dihydroxy acid to parent lactone” value is reported as “slowly reverts to the corresponding,parent lactone on standing”.

These data come from patent USRE36520E, “HMG-CoA reductase inhibitors” (Merck & Co., Inc., priority 1998, dated 2000).
